Data: PubChem BioAssay AID1963428 (Molecular Pharmacology Branch, DTP, NCI, 2024)

System: 171881-019-R-J1-PDC complex spheroid growth, % test/control
Test: Anticancer human tumor 171881-019-R-J1-PDC patient-derived invasive breast carcinoma cell line growth inhibition [Asc]
Conditions: for IC50: curve of first compound; for viability, T/C: stronger effect = lower value; active = viability on the fitted dose curve at most 10% of control; inactive = the rest
Procedure, shortened: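 Tumor cells were grown as complex spheroids with human endothelial cells (HUVEC) and human mesenchymal stem cells as stroma. Agents were tested alone and in combination, in half-log steps down from the clinical Cmax, or from 10 microM where Cmax was unknown.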

[1] = second compound 0.01 µM, first compound 0.0316 µM
[2] = second compound 0.01 µM, first compound 0.1 µM
[3] = second compound 0.0316 µM, first compound 0.0316 µM
[4] = second compound 0.0316 µM, first compound 0.1 µM
[5] = second compound 0.1 µM, first compound 0.0316 µM
[6] = second compound 0.1 µM, first compound 0.1 µM
[7] = second compound 0.1 µM, first compound 0.316 µM
[8] = second compound 0.1 µM, first compound 1 µM
[9] = second compound 0.316 µM, first compound 0.0316 µM
[10] = second compound 0.316 µM, first compound 0.1 µM
[11] = second compound 0.316 µM, first compound 0.316 µM
[12] = second compound 0.316 µM, first compound 1 µM
[13] = second compound 1 µM, first compound 0.0316 µM
[14] = second compound 1 µM, first compound 0.1 µM
[15] = second compound 1 µM, first compound 0.316 µM
[16] = second compound 1 µM, first compound 1 µM
[17] = second compound 0.1 µM, first compound 0.00316 µM
[18] = second compound 0.1 µM, first compound 0.01 µM
[19] = second compound 0.316 µM, first compound 0.00316 µM
[20] = second compound 0.316 µM, first compound 0.01 µM
[21] = second compound 1 µM, first compound 0.00316 µM
[22] = second compound 1 µM, first compound 0.01 µM
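Throughout, for viability, T/C: spheroids exposed to compounds for 7 days.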

C=C(F)C(=O)N1CCN(c2nc(OCC3CCCN3C)nc3c2CCN(c2cccc4cccc(Cl)c24)C3)CC1CC#N (stereo not given) + CNC(C)C(=O)NC1CN(S(=O)(=O)c2cccc(S(=O)(=O)N3CCC4CCC(C(=O)NC(c5ccccc5)c5ccccc5)N4C(=O)C(NC(=O)C(C)NC)C3)c2)CCC2CCC(C(=O)NC(c3ccccc3)c3ccccc3)N2C1=O
5.41 µM: IC50 (second compound 1 µM)
inactive: viability, T/C [1] 93.5% | viability, T/C [2] 91.3% | viability, T/C (second compound 0.01 µM, first compound 0.316 µM) 95% | viability, T/C (second compound 0.01 µM, first compound 1 µM) 101% | viability, T/C (second compound 0.01 µM, first compound 3.16 µM) 113% | viability, T/C [3] 90% | viability, T/C [4] 88.8% | viability, T/C (second compound 0.0316 µM, first compound 0.316 µM) 76.7% | viability, T/C (second compound 0.0316 µM, first compound 1 µM) 112% | viability, T/C (second compound 0.0316 µM, first compound 3.16 µM) 112% | viability, T/C [5] 95.9% | viability, T/C [6] 97.2% | viability, T/C [7] 100% | viability, T/C [8] 104% | viability, T/C (second compound 0.1 µM, first compound 3.16 µM) 107% | viability, T/C [9] 81.3% | viability, T/C [10] 91.1% | viability, T/C [11] 86.1% | viability, T/C [12] 106% | viability, T/C (second compound 0.316 µM, first compound 3.16 µM) 111% | viability, T/C [13] 90.3% | viability, T/C [14] 84.6% | viability, T/C [15] 86.5% | viability, T/C [16] 95.5% | viability, T/C (second compound 1 µM, first compound 3.16 µM) 106%
5.65 µM: IC50 (second compound 0.01 µM)
5.51 µM: IC50 (second compound 0.0316 µM)
active: viability, T/C (second compound 0.01 µM, first compound 10 µM) 1.9% | viability, T/C (second compound 0.0316 µM, first compound 10 µM) 0.82% | viability, T/C (second compound 0.1 µM, first compound 10 µM) 1.02% | viability, T/C (second compound 0.316 µM, first compound 10 µM) 2.51% | viability, T/C (second compound 1 µM, first compound 10 µM) 1.17%
5.69 µM: IC50 (second compound 0.1 µM)
5.54 µM: IC50 (second compound 0.316 µM)

CNC(C)C(=O)NC1CN(S(=O)(=O)c2cccc(S(=O)(=O)N3CCC4CCC(C(=O)NC(c5ccccc5)c5ccccc5)N4C(=O)C(NC(=O)C(C)NC)C3)c2)CCC2CCC(C(=O)NC(c3ccccc3)c3ccccc3)N2C1=O (stereo not given) + Cc1c(S(C)(=O)=O)c(-c2cc(F)cc(N3CCN(c4ccc(NS(=O)(=O)c5ccc(NC(CCN6CCC(C(=O)OCCCP(=O)(O)O)CC6)CSc6ccccc6)c(S(=O)(=O)C(F)(F)F)c5)cc4)CC3)c2)c(-c2ccc(Cl)cc2)n1C(C)C
> 1 µM: IC50 (second compound 0.1 µM) | IC50 (second compound 0.316 µM) | IC50 (second compound 1 µM) | IC50 (second compound 3.16 µM) | IC50 (second compound 10 µM)
inactive: viability, T/C [17] 100% | viability, T/C [18] 90.4% | viability, T/C [5] 96% | viability, T/C [6] 87.8% | viability, T/C [7] 82.5% | viability, T/C [8] 73.2% | viability, T/C [19] 110% | viability, T/C [20] 109% | viability, T/C [9] 94.9% | viability, T/C [10] 112% | viability, T/C [11] 90.8% | viability, T/C [12] 97.2% | viability, T/C [21] 90.1% | viability, T/C [22] 133% | viability, T/C [13] 129% | viability, T/C [14] 107% | viability, T/C [15] 104% | viability, T/C [16] 119% | viability, T/C (second compound 3.16 µM, first compound 0.00316 µM) 138% | viability, T/C (second compound 3.16 µM, first compound 0.01 µM) 141% | viability, T/C (second compound 3.16 µM, first compound 0.0316 µM) 144% | viability, T/C (second compound 3.16 µM, first compound 0.1 µM) 130% | viability, T/C (second compound 3.16 µM, first compound 0.316 µM) 126% | viability, T/C (second compound 3.16 µM, first compound 1 µM) 156% | viability, T/C (second compound 10 µM, first compound 0.00316 µM) 204% | viability, T/C (second compound 10 µM, first compound 0.01 µM) 171% | viability, T/C (second compound 10 µM, first compound 0.0316 µM) 172% | viability, T/C (second compound 10 µM, first compound 0.1 µM) 183% | viability, T/C (second compound 10 µM, first compound 0.316 µM) 161% | viability, T/C (second compound 10 µM, first compound 1 µM) 173%

NC1CCC(NC2CC2c2ccccc2)CC1 (stereo not given) + CNC(C)C(=O)NC1CN(S(=O)(=O)c2cccc(S(=O)(=O)N3CCC4CCC(C(=O)NC(c5ccccc5)c5ccccc5)N4C(=O)C(NC(=O)C(C)NC)C3)c2)CCC2CCC(C(=O)NC(c3ccccc3)c3ccccc3)N2C1=O
inactive: viability, T/C (second compound 0.01 µM, first compound 0.000316 µM) 94.2% | viability, T/C (second compound 0.01 µM, first compound 0.001 µM) 86.1% | viability, T/C (second compound 0.01 µM, first compound 0.00316 µM) 82.1% | viability, T/C (second compound 0.01 µM, first compound 0.01 µM) 87.2% | viability, T/C [1] 83.9% | viability, T/C [2] 81% | viability, T/C (second compound 0.0316 µM, first compound 0.000316 µM) 89.9% | viability, T/C (second compound 0.0316 µM, first compound 0.001 µM) 91.5% | viability, T/C (second compound 0.0316 µM, first compound 0.00316 µM) 100% | viability, T/C (second compound 0.0316 µM, first compound 0.01 µM) 84.9% | viability, T/C [3] 79.5% | viability, T/C [4] 79.9% | viability, T/C (second compound 0.1 µM, first compound 0.000316 µM) 103% | viability, T/C (second compound 0.1 µM, first compound 0.001 µM) 103% | viability, T/C [17] 85.4% | viability, T/C [18] 79.1% | viability, T/C [5] 91.8% | viability, T/C [6] 91.8% | viability, T/C (second compound 0.316 µM, first compound 0.000316 µM) 90.4% | viability, T/C (second compound 0.316 µM, first compound 0.001 µM) 86.9% | viability, T/C [19] 84.2% | viability, T/C [20] 95.9% | viability, T/C [9] 85.3% | viability, T/C [10] 81.2% | viability, T/C (second compound 1 µM, first compound 0.000316 µM) 91.5% | viability, T/C (second compound 1 µM, first compound 0.001 µM) 96.6% | viability, T/C [21] 87.9% | viability, T/C [22] 85.2% | viability, T/C [13] 92.8% | viability, T/C [14] 86%
> 0.1 µM: IC50 (second compound 0.01 µM) | IC50 (second compound 0.0316 µM) | IC50 (second compound 0.1 µM) | IC50 (second compound 0.316 µM) | IC50 (second compound 1 µM)
